“Also recorded” adds a separate entry of the source.
Legend:
Assay in all cases: MTT viability assay
Assay type in all cases: cell-based
B1 leukemia cell line = conditions: 72 h, differing concentrations
Experimental: (§1) All cell lines were maintained in RPMI 1640+10% FCS. 100 μl aliquots of cell suspension (5×10^5 cells/ml) were cultured in flat-bottomed 96 well plates in the presence of different concentrations of peptides. After 72 h incubation at 37° C. in humidified air containing 5% CO2, viable cell number was determined by MTT assay as follows: 10 μl of 3-[4,5-dimethylthiazol-2-yl]-2,5-diphenyl tetrazolium bromide (MTT) (5 mg/ml concentration) (Sigma) was added to each well and incubated further for 6 h. Formazan crystals that are formed during incubation were dissolved in 100 μl of acidified isopropanol. The optical density at 550 nm (which is linearly related to the number of viable cells) was measured using a plate spectrophotometer. Growth characteristics of the leukemia cell lines were also determined for cells by Trypan Blue exclusion.

[1] = tested on: MOLT-4 T-cell leukemia line; conditions: 72 h, up to 200 μg/ml
Experimental: as §1

[2] = tested on: Reh B-precursor leukemia cell line; conditions: 72 h
Experimental: as §1

THP-1 leukemia cell line = conditions: 72 h, varying concentrations
Experimental: as §1

In the case of `CC[C@H](C)[C@H](NC(=O)[C@H](CCCCN)NC(=O)[C@@H](NC(=O)[C@H](Cc1c[nH]c2ccccc12)NC(=O)[C@H](CC(C)C)NC(=O)[C@H](CCCCN)NC(=O)[C@H](CCCCN)NC(=O)[C@H](Cc1c[nH]c2ccccc12)NC(=O)[C@H](CCCCN)NC(=O)[C@H](CCSC)NC(=O)[C@H](CCCNC(=N)N)NC(=O)[C@H](CCCNC(=N)N)NC(=O)[C@H](CC(N)=O)NC(=O)[C@H](CCC(N)=O)NC(=O)[C@H](Cc1ccccc1)NC(=O)[C@H](Cc1c[nH]c2ccccc12)NC(=O)[C@H](CCCCN)NC(=O)[C@@H](NC(=O)[C@H](CCC(N)=O)NC(=O)[C@@H](N)CCCNC(=N)N)[C@@H](C)CC)C(C)C)C(=O)N[C@@H](CC(=O)O)C(=O)N[C@@H](CC(C)C)C(=O)N[C@@H](CC(=O)O)C(=O)N[C@@H](CC(C)C)C(=O)N[C@@H](CC(C)C)C(=O)N[C@@H](CO)C(=O)N[C@@H](CCCNC(=N)N)C(=O)N[C@H](C(=O)N1CCC[C@H]1C(=O)O)C(C)C` [PFWT], the cell viability (B1 leukemia cell line) was “diminished; also recorded: inhibits”, the cell viability [1] was “not affected” and the cell viability [2] was “inhibited”. For the same molecule, the cell viability (THP-1 leukemia cell line) was “inhibited to a much lesser extent; also recorded: not significantly inhibited”.

Reference: patent US7189691B2, “Methods and compositions for treating leukemia” (The Administrators of the Tulane Educational Fund, priority 2004, dated 2007)
